Laboratory results published in publication PMC3598906 (2013).

Key:
[1] = system: ds26 (DNA, duplex) CAATCGGATCGAATTCGATCCGATTG; experiment: competitive dialysis; settings: potassium phosphate buffer, 50 µM DNA, 1 µM ligand, 24 h, room temperature
[2] = system: HT24 (DNA, G4) TAGGGTTAGGGTTAGGGTTAGGGT; experiment: competitive dialysis; settings: potassium phosphate buffer; 50 µM DNA, 1 µM ligand, 24 h, room temperature
[3] = system: 24bcl (DNA, G4) CGGGCGCGGGAGGAAGGGGGCGGG; experiment: competitive dialysis; settings: potassium phosphate buffer; 50 µM DNA, 1 µM ligand, 24 h, room temperature
[4] = system: cmyc (DNA, G4) GGGGAGGGTGGGGAGGGTGGGGAAGGTGGGG; experiment: competitive dialysis; settings: potassium phosphate buffer; 50 µM DNA, 1 µM ligand, 24 h, room temperature
ds6 (DNA, duplex) CGATCG [5] = experiment: fluorescence titration; settings: 185 mM KCl, 185 mM NaCl; pH 7, 25 °C; up to 25 µM DNA, 1 µM ligand; n.d., no change in fluorescence
Htel (DNA, G4) TTAGGG [6] = experiment: imino proton NMR melting; settings: 150 mM KCl, 25 mM KH2PO4; 1 mM EDTA, pH 6.7; imino signals lost at 45-55 °C free, still observed at 55 °C bound
Htel (DNA, G4) TTAGGG [7] = experiment: 1H NMR titration and NOESY; settings: 150 mM KCl, 25 mM KH2PO4, 1 mM EDTA, pH 6.7, 25 °C
Htel (DNA, G4) TTAGGG [8] = experiment: fluorescence titration, Equispec fit; settings: 185 mM KCl, 185 mM NaCl; 6 mM Na2HPO4, 2 mM NaH2PO4, 1 mM EDTA, pH 7, 25 °C; macroscopic; 1 µM ligand
[9] = system: ds8 (DNA, duplex) GCGATCGC; experiment: 1H NMR titration; settings: 70 mM KCl, 10 mM KH2PO4; 0.2 mM EDTA, pH 7.0; line broadening only, no intermolecular NOE; ions stated for other duplexes
ds6 (DNA, duplex) CGATCG [10] = experiment: 1H and 31P NMR titration; settings: 70 mM KCl, 10 mM KH2PO4; 0.2 mM EDTA, pH 7.0; [drug]/[DNA] up to 3

binding [1] | binding [2] | binding [3] | binding [4] | binding (ds6 (DNA, duplex) CGATCG [5]) | binding (Htel (DNA, G4) TTAGGG [6]) | Logarithm of the binding constants (Htel (DNA, G4) TTAGGG [8]) | binding ([1]; NMR suggests outside binding) | binding (ds6 (DNA, duplex) CGATCG [10]) | Structure (SMILES) | binding (Htel (DNA, G4) TTAGGG [7]; site at T2, A3, G4) | binding [9] | binding (Htel (DNA, G4) TTAGGG [7]; intercalates between A3 and G4)
no | yes | yes | yes | no | yes | 4.4 ± 0.1 log (M-1) | – | – | CN1CCN(C(=O)c2ccc3c(NC4CCN(Cc5ccccc5)CC4)c4ccccc4nc3c2)CC1 | yes | – | –
– | yes | yes | yes | no | yes | 4.9 ± 0.1 log (M-1) | yes | no | CN1CCN(C(=O)c2cccc3c(NCCc4c[nH]c5ccccc45)c4ccccc4nc23)CC1 | – | weak | yes
